The record followed here is patent US20020006955A1, “Ginkgolides for inhibition of membrane expression of benzodiazepine receptors” (priority 1995, published 2002).

Assay [1] relates to plasma ACTH. Description: Plasma ACTH by radioimmunoassay in treated rats. The note with it: 2 mg/kg intraperitoneally once daily for eight days; for ACTH: plasma, control 28.0. In kind it is in vivo, Sprague-Dawley rats. Here is the method: (§1) In each experiment, at least six rats per treatment group were used. After eight days of treatment, the rats were sacrificed.
(§2) The level of steroids in the rats was measured by radioimmunoassay from organic extracts of the collected serum. The levels of corticosterone (a glucocorticoid in rats) and testosterone were measured by radioimmunoassay using antibodies from Endocrine Sciences (Tarlana, Calif., USA) under conditions described by the supplier. The level of plasma ACTH was measured by radioimmunoassay using the method of Crousos, et al., New Engl. J. Med. 310:622 (1984). The level of aldosterone was measured by radioimmunoassay using a kit from Diagnostics Products Corp. (Los Angeles, Calif., USA).

Assay [2] deals with aldosterone. Description: Serum aldosterone by radioimmunoassay in treated rats. Type of assay: in vivo, Sprague-Dawley rats. The note with it: 2 mg/kg intraperitoneally once daily for eight days; for ALDOS-STERONE: serum, control 685. How it is done: as §1, §2
The test system of assay [3] is corticosterone (a glucocorticoid in rats). The experiment in a line: Assay for determining the inhibition of glucocorticoids: serum corticosterone by radioimmunoassay. In kind it is in vivo, Sprague-Dawley rats. The settings on record: 2 mg/kg intraperitoneally once daily for eight days; for CORTICOSTERONE: serum, control 161. Here is the method: as §1, §2
In assay [4] the target is 18 Kd peripheral benzodiazepine receptor protein. Description: Benzodiazepine radioligand binding assay ([3H]PK 11195) in adrenal mitochondria. Details: species or system rat. Here is the method:
See, Garnier, et al., Endocrinology 132:444 (1993). Mitochondria were prepared as described in Krueger, et al., J. Biol. Chem. 265:15015 (1990). Mitochondria ([…] of protein) were resuspended in phosphate buffered saline (PBS) and [^3H]PK 11195 (New England Nuclear, Wilmington, Del., USA). Binding studies were performed at 4° C. in a final incubation volume of 0.3 ml, using radioligand in the concentration range of 0.019-20.00 nM and 200 fold excess of unlabeled PK 11195 (Research Biochemicals, Natick, Mass., USA), as described in Garnier, et al., Endocrinology 132:444 (1993) and Garnier, et al., Mol. Pharm. 45:201 (1994). After 120 min. incubation time, the assay was stopped by filtration through Whatman GF/C filters and washed with 15 ml ice-cold PBS. Radioactivity trapped on the filters were determined by liquid scintillation counting at 50% counting efficiency. The dissociation constant (Kd) and the number of binding sites (Bmax) were determined by […] analysis of the data using the ligand™ program (Kell, V.4.0, Biosoft, Inc.). See Munson, et al., Anal. Biochem. 107:220 (1980).

Assay [5] concerns testosterone. The experiment in a line: Serum testosterone by radioimmunoassay in treated rats. The note with it: 2 mg/kg intraperitoneally once daily for eight days; for TESTOSTERONE: serum, control 4.50. In kind it is in vivo, Sprague-Dawley rats. How it is done:
as §1, §2

The test system of assay [6] is peripheral benzodiazepine receptor mRNA. Description: mRNA expression of benzodiazepine receptor in adrenal tissue (RNA blot, PBR cDNA probe). The settings on record: adrenal tissue total RNA, densiometric analysis. More on the design: species or system rat. Here is the method:
mRNA Expression of Benzodiazepine Receptor The ginkgolide induced decrease in mRNA expression of the benzodiazepine receptor was also confirmed. Total cellular RNA from adrenal tissue was isolated by the acid guanidinium thiocyanate-phenol-chloroform extraction method (Chomczynski, et al., Anal. Biochem. 162:156-159 (1987)) using the RNAzol B reagent (Tel-Test Inc., Friendswood, Texas, USA). RNA electrophoresis transfer, probe labelling, and membrane hybridization were performed as previously described in Dym, et al., Endocrinology 128:1167-1176 (1991). RNA was size-fractionated by electrophoresis and transferred to derivatized nylon membranes (Nytran Plus, Schleicher & Schuell, Keene, New Hampshire, USA). The blots were then hybridized against the [^32p] cDNA probe for PBR labelled by the random priming technique. The 781 base-pair probe for PBR mRNA used was prepared as previously described in Garnier, et al., Endocrinology 132:444-458 (1993). Screen enhanced autoradiography was performed by exposing Kodak X-OMAT AR films to the blots at −80° C for 48 hours. Densiometric analysis of the spots was performed as described above.

The structures appear in SMILES notation.

For `C[C@@H]1C(=O)O[C@H]2C[C@@]34[C@H]5C[C@@H](C(C)(C)C)[C@]36[C@@H](OC(=O)[C@@H]6O)O[C@@]4(C(=O)O5)[C@]21O` [Ginkgolide A, ginkgolide A], in assay [1], the “effect on ACTH release” value is listed as “increase ACTH release” and the ACTH is 103 pg/mL. Also, in assay [2], the “effect on serum levels of aldosterone” value is “unaffected” and the ALDOS-STERONE stood at 638 pg/mL. Besides, in assay [3], the “effect on the level of corticosterone in the rats” value is given as “decrease” and the CORTICOSTERONE was found to be 66 ng/mL. This molecule had an equilibrium dissociation constant (Kd) in assay [4] (dissociation constant of radioligand [3H]PK 11195 in adrenal mitochondria after treatment with the substance, 4° C., 120 min, control 1.7) of 1.3 nM. Further, in assay [4] (from Bmax versus control, adrenal mitochondria), the “decrease of expression of the 18 Kd peripheral benzodiazepine receptor protein” value was 50%. Further, in assay [4] (number of [3H]PK 11195 binding sites in adrenal mitochondria after treatment with the substance, control 11.2), the Bmax came out at 5.6 pmol/mg. In assay [5], the “effect on serum levels of testosterone” value is recorded as “unaffected” and the TESTOSTERONE was 4.75 ng/mL.

As to `CC1C(=O)OC2C(O)C34C5CC(C(C)(C)C)C36C(OC(=O)C6O)OC4(C(=O)O5)C12O` (centres unmarked) [Ginkgolide B, ginkgolide B], in assay [1], the “effect on ACTH release” value was “increase ACTH release” and the ACTH was found to be 71.4 pg/mL. In addition, the “reduction of peripheral benzodiazepine receptor mRNA expression” value in assay [6] was 85%. In addition, in assay [2], the “effect on serum levels of aldosterone” value is “unaffected” and the ALDOS-STERONE came to 893 pg/mL. In assay [3], the “effect on the level of corticosterone in the rats” value is given as “decrease” and the CORTICOSTERONE was 75 ng/mL. In addition, in assay [5], the “effect on serum levels of testosterone” value was “unaffected” and the TESTOSTERONE is 4.50 ng/mL.

A word on the Kd: it is the free concentration of one partner at which half of the binding sites on the other are occupied at equilibrium, for simple one-to-one binding. Low values mean a tighter complex, high ones a looser complex.
